Laboratory results as given in PubChem BioAssay (NCI).
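Test compounds were applied to cells in 96-well plates for 48 hours at 5 doses. GI50 marks 50% less growth. TGI denotes the concentration required for complete inhibition of growth.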

Columns and labels:
Test in all cases: NCI tumour cell line growth inhibition, 48 h
[1] = tested on: 786-0 renal
[2] = tested on: A498 renal
[3] = tested on: A549 NSCLC
[4] = tested on: ACHN renal
[5] = tested on: BT-549 breast
[6] = tested on: CAKI-1 renal
[7] = tested on: CCRF-CEM leukemia
[8] = tested on: COLO 205 colon
[9] = tested on: DU-145 prostate
[10] = tested on: EKVX NSCLC
[11] = tested on: HCC-2998 colon
[12] = tested on: HCT-116 colon
[13] = tested on: HCT-15 colon
[14] = tested on: HL-60(TB) leukemia
[15] = tested on: HOP-62 NSCLC
[16] = tested on: HOP-92 NSCLC
[17] = tested on: HS 578T breast
[18] = tested on: HT29 colon
[19] = tested on: IGROV1 ovarian
[20] = tested on: K-562 leukemia
[21] = tested on: KM12 colon
[22] = tested on: LOX IMVI melanoma
[23] = tested on: M14 melanoma
[24] = tested on: MALME-3M melanoma
[25] = tested on: MCF7 breast
[26] = tested on: MDA-MB-231 breast
[27] = tested on: MDA-MB-435
[28] = tested on: MOLT-4 leukemia
[29] = tested on: NCI-H226 lung
[30] = tested on: NCI-H23 lung
[31] = tested on: NCI-H460 lung
[32] = tested on: NCI-H522 lung
[33] = tested on: NCI/ADR-RES ovarian
[34] = tested on: OVCAR-3 ovarian
[35] = tested on: OVCAR-4 ovarian
[36] = tested on: OVCAR-5 ovarian
[37] = tested on: OVCAR-8 ovarian
[38] = tested on: PC-3 prostate
[39] = tested on: RPMI-8226 leukemia
[40] = tested on: RXF 393 renal
[41] = tested on: SF-268 CNS
[42] = tested on: SF-295 CNS
[43] = tested on: SF-539 CNS
[44] = tested on: SK-MEL-2 melanoma
[45] = tested on: SK-MEL-28 melanoma
[46] = tested on: SK-MEL-5 melanoma
[47] = tested on: SK-OV-3 ovarian
[48] = tested on: SN12C renal
[49] = tested on: SNB-19 CNS
[50] = tested on: SNB-75 CNS
[51] = tested on: SR leukemia
[52] = tested on: SW-620 colon
[53] = tested on: T-47D breast
[54] = tested on: TK-10 renal
[55] = tested on: U251 CNS
[56] = tested on: UACC-257 melanoma
[57] = tested on: UACC-62 melanoma
[58] = tested on: UO-31 renal

Structure (SMILES): CN1CCN(CCCCCN=c2cc3c(=O)n(CCCCCN4CCN(C)CC4)c(=O)c4c(NCCCCCN5CCN(C)CC5)cc5c(O)n(CCCCCN6CCN(C)CC6)c(=O)c2c5c4-3)CC1
- GI50 [1]: > 100 µM
- TGI [1]: > 100 µM
- GI50 [2]: 19.2 µM
- TGI [2]: 60 µM
- GI50 [3]: 2.92 µM
- TGI [3]: 8.64 µM
- GI50 [4]: 43.3 µM
- TGI [4]: > 100 µM
- GI50 [5]: 4.34 µM
- TGI [5]: 15.7 µM
- GI50 [6]: > 100 µM
- TGI [6]: > 100 µM
- GI50 [7]: 2.69 µM
- TGI [7]: 26 µM
- GI50 [8]: 2.31 µM
- TGI [8]: 8.07 µM
- GI50 [9]: 3.08 µM
- TGI [9]: 10.3 µM
- GI50 [10]: 2.93 µM
- TGI [10]: 17.2 µM
- GI50 [11]: 5.79 µM
- TGI [11]: 24.4 µM
- GI50 [12]: 3.31 µM
- TGI [12]: 17.3 µM
- GI50 [13]: > 100 µM
- TGI [13]: > 100 µM
- GI50 [14]: 7.16 µM
- TGI [14]: 59 µM
- GI50 [15]: 2.45 µM
- TGI [15]: 12.2 µM
- GI50 [16]: 1.84 µM
- TGI [16]: 7.39 µM
- GI50 [17]: 2.64 µM
- TGI [17]: 6.86 µM
- GI50 [18]: 1.45 µM
- TGI [18]: 5.31 µM
- GI50 [19]: 5.7 µM
- TGI [19]: 29.4 µM
- GI50 [20]: 3.62 µM
- TGI [20]: > 100 µM
- GI50 [21]: 2.49 µM
- TGI [21]: 8.39 µM
- GI50 [22]: 2.94 µM
- TGI [22]: 12.8 µM
- GI50 [23]: 35 µM
- TGI [23]: > 100 µM
- GI50 [24]: 2.55 µM
- TGI [24]: 5.98 µM
- GI50 [25]: 2.52 µM
- TGI [25]: 7.41 µM
- GI50 [26]: 2.38 µM
- TGI [26]: 7.22 µM
- GI50 [27]: 2.7 µM
- TGI [27]: 8.73 µM
- GI50 [28]: 4.85 µM
- TGI [28]: > 100 µM
- GI50 [29]: 3.25 µM
- TGI [29]: 21.6 µM
- GI50 [30]: 6.65 µM
- TGI [30]: 46.3 µM
- GI50 [31]: 3.06 µM
- TGI [31]: 10.2 µM
- GI50 [32]: 1.46 µM
- TGI [32]: 3.93 µM
- GI50 [33]: > 100 µM
- TGI [33]: > 100 µM
- GI50 [34]: 3.23 µM
- TGI [34]: 9.92 µM
- GI50 [35]: 2.22 µM
- TGI [35]: 5.61 µM
- GI50 [36]: 2.13 µM
- TGI [36]: 7.79 µM
- GI50 [37]: 3.92 µM
- TGI [37]: 17.2 µM
- GI50 [38]: 3.32 µM
- TGI [38]: 19.4 µM
- GI50 [39]: 3.02 µM
- TGI [39]: 11.3 µM
- GI50 [40]: 24.3 µM
- TGI [40]: > 100 µM
- GI50 [41]: 2.07 µM
- TGI [41]: 6.09 µM
- GI50 [42]: 15.7 µM
- TGI [42]: 57.2 µM
- GI50 [43]: 2.64 µM
- TGI [43]: 8.32 µM
- GI50 [44]: 2.69 µM
- TGI [44]: 7.43 µM
- GI50 [45]: 2.96 µM
- TGI [45]: 8.14 µM
- GI50 [46]: 14.1 µM
- TGI [46]: 58.8 µM
- GI50 [47]: 2.03 µM
- TGI [47]: 5.62 µM
- GI50 [48]: 2.55 µM
- TGI [48]: 9.73 µM
- GI50 [49]: 2.14 µM
- TGI [49]: 7.16 µM
- GI50 [50]: 2.66 µM
- TGI [50]: 10.2 µM
- GI50 [51]: 4.01 µM
- TGI [51]: 25.1 µM
- GI50 [52]: 3.31 µM
- TGI [52]: 31.6 µM
- GI50 [53]: 3.59 µM
- TGI [53]: 25.4 µM
- GI50 [54]: 10.6 µM
- TGI [54]: 77.2 µM
- GI50 [55]: 2.21 µM
- TGI [55]: 6.68 µM
- GI50 [56]: 2.6 µM
- TGI [56]: 6.56 µM
- GI50 [57]: 4.19 µM
- TGI [57]: 15.7 µM
- GI50 [58]: 75 µM
- TGI [58]: > 100 µM
